Where two headings read alike, the source gives them in different places.
Assays:
[1] = target: T1, p66/p51C280A mutant HIV-1 RNase H (Human immunodeficiency virus type 1 group M subtype B, UniProt P04585, C867A); design: made in house; method as in PMID 24261890; settings: p66/p51 C280A mutant RT; cited from earlier work
[2] = target: T2, HIV-1 IN in the presence of LEDGF/p75 (Human immunodeficiency virus type 1 group M subtype B, UniProt P04585); test: HTRF IN LEDGF/p75-dependent assay; assay type: biochemical
T2 construct: made in house
Procedure: The IN LEDGF/p75-dependent assay measures inhibition of IN activity in the presence of LEDGF/p75 protein[35–37]. Briefly, 50 nM IN was pre-incubated with increasing concentration of compounds for 1 h at room temperature in reaction buffer containing 20 mM HEPES pH 7.5, 1 mM DTT, 1% Glycerol, 20 mM MgCl2, 0.05% Brij-35 and 0.1 mg/ml BSA. To this mixture, 9 nM DNA donor substrate (5′-[…]-Biotin-3′ annealed with 5′-[…]-Biotin3’) and 50 nM DNA acceptor substrate (5′-Cy5-[…]-3′ annealed with 5′-Cy5- […]-3′) and 50 nM LEDGF/p75 were added and incubated at 37 °C for 90 min.

[3] = target: T3, HIV-1 RT-associated RDDP (Human immunodeficiency virus type 1 group M subtype B, UniProt P04585); test: HIV-1 RNA-dependent DNA polymerase activity determination; assay type: biochemical; settings: wt RT, poly(A)-oligo(dT)
T3 construct: dynamics at the p66/p51 HIV-1 RT-RNase H dimer interface; made in house
Procedure: HIV-1 RT-associated RDDP activity was measured as described[17]^,[38]. Briefly, in 25 μL volume containing 60 mM Tris-HCl pH 8.1, 8 mM MgCl2, 60 mM KCl, 13 mM DTT, poly(A)-oligo(dT), 100 μM dTTP, and 6 ng wt RT. After enzyme addition, the reaction mixture was incubated for 30 min at 37 °C and stopped by addition of EDTA. […] All assays were performed in triplicate.

[4] = target: T4, wt HIV-1 RT-associated RNase H (Human immunodeficiency virus type 1 group M subtype B, UniProt P04585); settings: wild type RT, cited from earlier work
T4 construct: dynamics at the p66/p51 HIV-1 RT-RNase H dimer interface; made in house

[5] = target: T1, p66/p51C280A mutant HIV-1 RNase H; test: RNase H inhibitor analysis, p66/p51 C280A mutant RT
Procedure: IC50 values were determined as previously reported[31] using an 18-nt 3′-fluorescein-labeled RNA annealed to a complementary 18-nt 5′-dabcyl-labeled DNA. To a 96-well plate was added 1 μL of each inhibitor (in DMSO), followed by 10 μL of the appropriate RT (15−80 ng/mL) in reaction buffer. […] Wells containing only DMSO was used as negative control. […] IC50 values were determined using Prism5 (GraphPad Software, San Diego, CA). All assays were performed in triplicate.

[6] = system: HIV-1RF isolate in CEM-SS cells; test: Antiviral activity, XTT-based cell viability assay; settings: for selectivity index (SI): CC50/EC50, CEM-SS cells; for EC50: Human immunodeficiency virus 1, HIV-1RF, CEM-SS cells, XTT
Procedure: (§1) Antiviral activity of selected thienopyrimidinones was determined via the 2,3-bis[2-methoxy-4-nitro-5-sulfophenyl]-5-[(phenylamino)carbonyl]-2H tetrazolium hydroxide (XTT)-based cell viability assay of Weislow et al.[45], using the HIV-1RF isolate and human T-cell line CEM-SS.

[7] = target: T4, wt HIV-1 RT-associated RNase H; test: RNase H inhibitor analysis, wild type RT (fluorescent RNA/DNA hybrid); assay type: biochemical; settings: for IC50: wild type RT
Procedure: All assays were performed in triplicate.

[8] = Cytotoxicity in XTT-based cell viability assay; settings: human, CEM-SS T cells
Procedure: as §1

[9] = target: T5, HIV-1 RT-associated RNase H (Human immunodeficiency virus type 1 group M subtype B, UniProt P04585); test: Yonetani-Theorell analysis on RNase H activity; assay type: biochemical; settings: combination of compound 11 and compound 24
T5 construct: dynamics at the p66/p51 HIV-1 RT-RNase H dimer interface; made in house
Procedure: Yonetani–Theorell analysis[43] was performed as reported. Briefly, HIV RT-associated RNase H activity was measured in 100 µL reaction volume containing 50 mM Tris–HCl buffer pH 7.8, 6 mM MgCl2, 1 mM dithiothreitol (DTT), 80 mM KCl, 0.25 µM hybrid RNA/DNA 5′-[…]-Fluorescin-3′ (HPLC, dry, QC: Mass Check) (available from Metabion) 5′-Dabcyl-[…]-3′(HPLC, dry, QC: Mass Check), and different amount of enzymes according to a linear range of dose-response curve: 20 ng of WT RT, and increasing concentrations of inhibitor (diluted) in water and incubated for 1 h at 37 °C, at 200 rpm. Products were measured with a multilabel counter plate reader Victor 3 (Perkin Elmer model 1420-051) equipped with filters for 490/528 nm (excitation/emission wavelength). A calibration curve for the fluorescein signal was generated in parallel, calculating pmols of product generated by the reaction. The reciprocal of the reaction product was plotted vs. the compound concentration a different condition using the Sigma-Plot software.

SMILES	IC50 [2]	IC50 [3]	IC50 [5]	IC50 [7]	other results
Cc1sc2nc(-c3ccc(O)c(O)c3)[nH]c(=O)c2c1C [Compound 1, 2-(3,4-dihydroxyphenyl)-5,6-dimethylthieno[2,3-d]pyrimidin-4(3H)-one, reference compound]					IC50 [1]: 320 nM
Cc1ccc2nc(-c3ccc(O)c(O)c3)[nH]c(=O)c2c1 [Compound 2, 2–(3,4-dihydroxyphenyl)-6-methylquinazolin-4(3H)-one]	4.3 ± 1.5 µM	> 100 µM			IC50 ([4]; read-out: IC50 WT RNase H): 0.41 ± 0.01 µM; IC50 [1]: 370 ± 10 nM
Cc1ccc2c(=O)[nH]c(-c3ccc(O)c(O)c3)nc2c1 [Compound 3, 2–(3,4-dihydroxyphenyl)-7-methylquinazolin-4(3H)-one]	2.35 ± 0.44 µM	60 ± 9 µM	230 ± 20 nM	0.5 ± 0.02 µM	selectivity index (SI) [6]: 2; EC50 [6]: 12000 nM; CC50 [8]: 25000 nM
COc1ccc2nc(-c3ccc(O)c(O)c3)[nH]c(=O)c2c1 [Compound 4, 2–(3,4-dihydroxyphenyl)-6-methoxyquinazolin-4(3H)-one]	8.5 ± 0.3 µM	57 ± 3 µM	410 ± 10 nM	0.57 ± 0.02 µM	
COc1cc2nc(-c3ccc(O)c(O)c3)[nH]c(=O)c2cc1OC [Compound 5, 2–(3,4-dihydroxyphenyl)-6,7-dimethoxyquinazolin-4(3H)-one]	6.5 ± 2.5 µM	> 100 µM	330 ± 3 nM	0.73 ± 0.02 µM	
O=c1[nH]c(-c2ccc(O)c(O)c2)nc2ccc(-c3ccccc3)cc12 [Compound 6, 2–(3,4-dihydroxyphenyl)-6-phenylquinazolin-4(3H)-one]	89 ± 10 µM	63 ± 11 µM	290 ± 6 nM	0.37 ± 0.01 µM	
O=c1[nH]c(-c2ccc(O)c(O)c2)nc2cc3ccccc3cc12 [Compound 7, 2–(3,4-dihydroxyphenyl)benzo[g]quinazolin-4(3H)-one]	31.5 ± 6.5 µM	23.4 ± 0.5 µM	510 ± 50 nM	1.1 ± 0.04 µM	
O=c1[nH]c(-c2ccc(O)c(O)c2)nc2ccc(I)cc12 [Compound 8, 2–(3,4-dihydroxyphenyl)-6-iodoquinazolin-4(3H)-one]	3.4 ± 0.83 µM	26.7 ± 2.2 µM	120 ± 1 nM	0.15 ± 0.01 µM	selectivity index (SI) [6]: 2; EC50 [6]: 8300 nM; CC50 [8]: 17000 nM
O=c1[nH]c(-c2ccc(O)c(O)c2)nc2ccc(Br)cc12 [Compound 9, 2–(3,4-dihydroxyphenyl)-6-bromoquinazolin-4(3H)-one]	7 ± 2 µM	46 ± 3 µM	400 ± 10 nM	0.45 ± 0.008 µM	
O=c1[nH]c(-c2ccc(O)c(O)c2)nc2ccc(Cl)cc12 [Compound 10, 2–(3,4-dihydroxyphenyl)-6-chloroquinazolin-4(3H)-one]	3.4 ± 0.6 µM	30.5 ± 0.4 µM	200 ± 10 nM	0.31 ± 0.01 µM	selectivity index (SI) [6]: 4; EC50 [6]: 5400 nM; CC50 [8]: 22000 nM
O=c1[nH]c(-c2ccc(O)c(O)c2)nc2cc(Cl)ccc12 [Compound 11, 2–(3,4-dihydroxyphenyl)-7-chloroquinazolin-4(3H)-one]	7.2 ± 0.7 µM	> 100 µM	660 ± 50 nM	0.43 ± 0.01 µM	selectivity index (SI) [6]: 3; EC50 [6]: 1800 nM; interaction constant α [9]: greater than 1; simultaneous inhibition of RNase H (Yonetani-Theorell) [9]: not kinetically mutually exclusive; CC50 [8]: 6000 nM
O=c1[nH]c(-c2ccc(O)c(O)c2)nc2ccc(F)cc12 [Compound 12, 2–(3,4-dihydroxyphenyl)-6-fluoroquinazolin-4(3H)-one]	6.61 ± 0.93 µM	> 100 µM	840 ± 30 nM	0.52 ± 0.06 µM	
O=c1[nH]c(-c2ccc(O)c(O)c2)nc2ccc([N+](=O)[O-])cc12 [Compound 13, 2–(3,4-dihydroxyphenyl)-6-nitroquinazolin-4(3H)-one]	23.2 ± 0.8 µM	99 ± 1 µM	170 ± 4 nM	0.31 ± 0.01 µM	
O=C1NC(c2ccc(O)c(O)c2)Nc2ccc(Cl)cc21 (stereo not shown) [Compound 14, 6-chloro-2–(3,4-dihydroxyphenyl)-2,3-dihydroquinazolin-4(1H)-one]	> 100 µM	> 100 µM	400 ± 30 nM	0.56 ± 0.25 µM	
O=c1[nH]c(-c2ccc(O)c(O)c2)nc2c1oc1ccccc12 [Compound 15, 2–(3,4-dihydroxyphenyl)benzofuro[3,2-d]pyrimidin-4(3H)-one]	5.35 ± 0.35 µM	25.3 ± 6.3 µM	390 ± 10 nM	0.64 ± 0.03 µM	
O=c1[nH]c(-c2ccc(O)c(O)c2)nc2ncccc12 [Compound 16, 2–(3,4-dihydroxyphenyl)pyrido[2,3-d]pyrimidin-4(3H)-one]	0.69 ± 0.19 µM	38 ± 4 µM	2000 ± 100 nM	2.4 ± 1.6 µM	
O=c1[nH]c(-c2ccc(O)c(O)c2)nc2ccccc12 [Compound 17, 2–(3,4-dihydroxyphenyl)quinazolin-4(3H)-one]	1.44 ± 0.4 µM	70 ± 1 µM			IC50 ([4]; read-out: IC50 (µM) WT RNase H): 3.46 ± 0.47 µM; fold less potent HIV-1 RNase H inhibitor ([7]; compared with decorated quinazolinone 2): 8 fold
O=C(O)c1ccc(-c2nc3ccccc3c(=O)[nH]2)cc1O [Compound 18, 2-hydroxy-4-(4-oxo-3,4-dihydroquinazolin-2-yl)benzoic acid]				13.6 ± 0.3 µM	
Nc1ccc(-c2nc3ccccc3c(=O)[nH]2)cc1O [Compound 19, 2-(4-amino-3-hydroxyphenyl)quinazolin-4(3H)-one]				> 50 µM	
Nc1ccc(-c2nc3ccccc3c(=O)[nH]2)cc1N [Compound 20, 2–(3,4-diaminophenyl)quinazolin-4(3H)-one]				> 50 µM	
O=c1[nH]c(-c2ccc([N+](=O)[O-])c(O)c2)nc2ccccc12 [Compound 21, 2–(3-hydroxy-4-nitrophenyl)quinazolin-4(3H)-one]				> 50 µM	
Oc1ccc(-c2ccc3ccccc3n2)cc1O [Compound 22, 4-(quinolin-2-yl)benzene-1,2-diol]			610 ± 220 nM	2.9 ± 0.89 µM	fold more potent on C280A mutant RT RNase H than wt RT ([5]; C280A vs wt): 4 fold
Oc1ccc(-c2ccc3ccccc3c2)cc1O [Compound 23, 4-(naphthalen-2-yl)benzene-1,2-diol]			1200 ± 40 nM	0.71 ± 0.03 µM	selectivity index (SI) [6]: 2; EC50 [6]: 14000 nM; fold more potent than the reported compound 17 ([7]; wt RT RNase H): 5 fold; CC50 [8]: 26000 nM
O=c1[nH]c(-c2ccc(O)c(O)c2)nc2sc3c(c12)CCCCC3 [Compound 24, 2–(3,4-dihydroxyphenyl)-3,5,6,7,8,9-hexahydro-4H-cyclohepta[4,5]thieno[2,3-d]pyrimidin-4-one, reference compound]					interaction constant α [9]: greater than 1; simultaneous inhibition of RNase H (Yonetani-Theorell) [9]: not kinetically mutually exclusive
